Assays:
papillary muscle = assay: Isometric contraction force of electrically stimulated papillary muscles; type: cell-based, guinea pigs; conditions: Cavia porcellus; electrically stimulated (1 Hz)
Procedure: (§1) The COS-releasing compounds according to the present invention were tested on isolated muscle-preparations of the aorta, arteria pulmonalis, terminal ileum, papillary muscle and the right atrium (derived from guinea pigs) for their vasodilatory effect.
(§2) Guinea pigs of both sexes (340-480 g) were killed with a blow on the neck. After excision of the heart, the aorta and the ileum were dissected. The aorta was cleaned of loosely adhering fat and connective tissue and cut into rings of 2 mm width. The terminal portion of the ileum was removed and the 10 cm nearest to the caecum were discarded. The intestine was placed in a nutrient solution. The intestine was cleaned by flushing with nutrient solution and cut into pieces of 2 to 3 cm length. The arteria pulmonalis was dissected close to the heart, cleaned and cut into rings of 2 mm width. Papillary muscles were dissected from the right ventricle for contractility measurements. Purkinje fibres were carefully removed to prevent spontaneous activity. Only muscles with a diameter of less than 0.87 mm were used in order to have a sufficient oxygen supply. Chronotropic activity was tested on guinea-pig isolated right atria.
(§3) After isolation the preparations (aortic rings, terminal ilea, arteria pulmonalis rings, papillary muscles and right atria) were stored at room temperature in gassed (95% O2-5% CO2) Krebs-Henseleit solution with the following composition (in mmol/l): NaCl 114.9, KCl 4.73, CaCl2 3.2, MgSO4 1.18, NaHCO3, 24.9, KH2PO4 1.18, glucose 10; pH 7.2-7.4.
(§4) Isometric contraction force of electrically stimulated papillary muscles (1 Hz), terminal ilea precontracted by 60 mmol/l KCl, aortic and arteria pulmonalis rings precontracted by 90 mmol/l KCl as well as spontaneous activity of right atria was measured by the method described by Reiter (Reiter, M. Bioassay of inotropic agents on the isolated papillary muscle. Arzneim. Forsch. 1967, 17, 1249-1253).
(§5) The preparations were placed in a continuously oxygenated (95% O2 and 5% CO2) bath of 35 ml nutrient solution to guarantee sufficient oxygen supply and appropriate pH as well as circulation of nutrient solution with and without test compound. The experiments were performed at a temperature of 37±1° C. The smooth and heart muscle preparations were connected with one end to a tissue holder and the other to a force transducer (Transbridge™, 4-Channel Transducer Amplifier, World Precision Instruments, Sarasota, Fla., USA). Papillary muscles were electrically driven with an Anapulse Stimulator Model 301-T and an Isolation Unit Model 305-1 (WPI, Hamden, Conn., USA) at a frequency of 1 Hz and a pulse duration of 3 ms. Amplitude of stimulation pulse was adjusted 10% above threshold level. Resting tension of either 3.92 mN (papillary muscles), 10.37 mN (right atria) or 19.6 mN (aortic and arteria pulmonalis rings) was kept constant throughout the experiments.
(§6) Signals were recorded with a chart recorder (BD 112 Dual Channel, Kipp & Zonen) and evaluated. For statistical analyses the arithmetic means and standard error of the mean (SEM) of n experiments were calculated. Statistical significance of the results was evaluated by the Student's t-test for paired observations. EC50-values were graphically determined from the concentration response curves.
(§7) Stock solutions of the compounds were dissolved in distilled water every day and were further diluted with modified Krebs-Henseleit solution to the required concentrations (1, 3, 10, 30 and 100 μmol/l).

aorta = assay: Isometric contraction force of isolated aortic rings precontracted by KCl; type: cell-based, guinea pigs; conditions: for EC50: Cavia porcellus, aortic rings precontracted by 90 mmol/l KCl, Krebs-Henseleit solution, 37°C
Procedure: as §1, §2, §3, §4, §5, §6, §7

arteria pulmonalis = assay: Isometric contraction force of isolated arteria pulmonalis rings precontracted by KCl; type: cell-based, guinea pigs; conditions: Cavia porcellus; arteria pulmonalis rings precontracted by 90 mmol/l KCl
Procedure: as §1, §2, §3, §4, §5, §6, §7

terminal ileum = assay: Isometric contraction force of isolated terminal ilea precontracted by KCl; type: cell-based, guinea pigs; conditions: Cavia porcellus; terminal ilea precontracted by 60 mmol/l KCl
Procedure: as §1, §2, §3, §4, §5, §6, §7

right atrium = assay: Spontaneous (chronotropic) activity of isolated right atria; type: cell-based, guinea pigs; conditions: Cavia porcellus
Procedure: as §1, §2, §3, §4, §5, §6, §7

[1] = test system: smooth muscle preparations; assay: Vasodilatory activity on smooth muscle preparations (preparation not specified); type: cell-based, guinea pigs; conditions: for EC50: Cavia porcellus, setup of 4.3, preparation not specified, read-out: EC50 vasodilatory activity (negative controls); for vasodilatory activity on smooth muscle preparations: setup of 4.3, aqueous solution
Procedure: as §1, §2, §3, §4, §5, §6, §7
Compounds CRC59, CRC59HCl, CRC60 and CRC60HCl as indicated in the table below were used as negative controls in the present experimental setup. Due to the exchange of sulfur against oxygen, said compounds are not able to release COS.

aortic rings = assay: Contraction force of aortic rings in blood plasma; type: cell-based, guinea pigs; conditions: 100 μM, guinea pig blood plasma, KCl 90 mM, after 60 minutes
Procedure: Guinea pigs of both sexes (340-480 g) were killed with a blow on the neck. The thorax was opened immediately and heparinized blood was collected. After centrifugation of the blood, the blood plasma was obtained which was used in the further experiments. Further, the aorta of the guinea pigs was excised and prepared as described in 4.3. Thus, the aortic rings were present at room temperature in Krebs-Henseleit solution and put under a resting tension. The contraction force was determined as described under 4.3. A stock solution of CRC80HCl in distilled water was prepared. CRC80HCl was used in a final concentration of 100 μM in the experiments.
In a second experiment, the Krebs-Henseleit solution was exchanged with blood plasma of the guinea pigs gained as described above prior to the addition of CRC80HCl. Thus, the Krebs-Henseleit solution was exchanged by 6 ml blood plasma and KCl was added 15 minutes later to a final concentration of 90 mM. Once a steady state was reached, CRC80HCl was added to a final concentration of 100 μM and the contraction force was recorded over a period of 60 minutes. After the period of 60 minutes, a decrease of the contraction force of 39% was observed.

isolated mouse heart = assay: Isolated mouse heart, Langendorff perfusion; type: cell-based, female OF-1 mice
Procedure: Hearts from female OF-1 mice were excised, cannulated and perfused retrogradely, according to the Langendorff technique, with modified oxygenated Krebs-Henseleit-buffer at constant pressure. After 15 min of baseline perfusion, CRC1HCl (10 μM) was administered into the coronary perfusion system for 10 min. Coronary flow (CF), heart rate (HR), aortic pressure (AoP), concentrations of K^+, Na^+, Ca^2+ and the pH-value were monitored throughout the whole experiment (CRC1HCl-group, n=8; control group, n=8).
In a second set of experiments in the setup as described above, nitro-L-arginine (L-NA) (n=6) and PNU-37883A (n=4) were evaluated as potential inhibitors of CRC1HCl (10 μM) activity. The compounds were added to final concentrations of 100 μM (L-NA) and 10 μM (PNU-37883A).
Also, the myocardial consumption of lactate and glucose was monitored in both the control-group and the CRC1HCl-group.

[2] = Stability in aqueous solution (concluded from inactivity in aqueous setup); type: physicochemical; conditions: conditions of 4.3
Description: Some of the COS releasing compounds according to formula (I) may, however, release COS in a spontaneous hydrolysis reaction due to the presence of H2O in aqueous solutions, suspensions, and the like. Said compounds may also be referred to as being “instable compounds” in aqueous solutions. The determination of the stability of COS releasing compounds according to the present invention may easily be determined, e.g. by dissolving a compound to be tested in an aqueous solution and determining the amount of COS released over time.

[3] = 10 μM, vs control, data not shown

| Structure (SMILES) | EC50 (papillary muscle) [µM] | EC50 (aorta) [µM] | EC50 (arteria pulmonalis) [µM] | EC50 (terminal ileum) [µM] | EC50 (right atrium) [µM] | also measured |
| --- | --- | --- | --- | --- | --- | --- |
| CSC(=S)n1c(C)nc2ccccc21 [CRC4HCl] | > 100 | 22.8 | 25.1 | 25.6 | 56 | – |
| COc1cc(CSC(=S)n2ccnc2)cc(OC)c1OC [CRC33] | > 100 | 2.98 | 7.9 | 15.3 | 26.5 | melting point: 110 to 113 °C |
| Cl.O=C(OC1CCCCC1)n1ccnc1 [CRC59HCl] | – | – | – | – | – | EC50 [1]: > 100 µM; vasodilatory activity on smooth muscle preparations [1]: did not show vasodilatory activity |
| CC(=O)OCCSC(=S)n1ccnc1 [CRC13HCl] | 77 | 5.75 | 24 | 100 | > 100 | – |
| CCOC(=O)CCSC(=S)n1ccnc1 [CRC11HCl] | > 100 | 16 | 19.8 | 32.1 | > 100 | – |
| CC(C)OC(=O)n1ccnc1 [CRC60] | – | – | – | – | – | vasodilatory activity on smooth muscle preparations [1]: did not show vasodilatory activity |
| O=C(OC1CCCCC1)n1ccnc1 [CRC59] | – | – | – | – | – | vasodilatory activity on smooth muscle preparations [1]: did not show vasodilatory activity |
| Cc1nccn1C(=S)SCc1ccccc1 [CRC9HCl] | > 100 | 3.36 | 10.5 | 17.2 | 15.3 | – |
| S=C(SCc1ccccc1)n1ccnc1 [CRC8HCl] | 26 | 20.1 | 63 | 15.3 | > 100 | – |
| CCOC(=S)OCCCN(C)C.Cl [CRC80HCl] | – | – | – | – | – | vasodilatory activity on the aortic ring in Krebs-Henseleit solution (aorta; 100 μM, period of 45 minutes): did not show a vasodilatory activity; decrease of the contraction force (aortic rings): 39% |
| CC(C)OC(=O)n1ccnc1.Cl [CRC60HCl] | – | – | – | – | – | EC50 [1]: > 100 µM; vasodilatory activity on smooth muscle preparations [1]: did not show vasodilatory activity |
| CSC(=S)n1ccnc1C [CRC5HCl] | > 100 | 6.3 | 11.2 | 9.5 | > 100 | – |
| CSC(=S)n1ccnc1.Cl [CRC1HCl] | 78 | 7.8 | 6.9 | 5.7 | > 100 | aortic pressure (AoP) (isolated mouse heart; 10 μM for 10 min, vs control): not significantly affected or altered; concentration of Ca2+ in coronary effusate (isolated mouse heart; 10 μM for 10 min, vs control): not significantly affected or altered; concentration of K+ in coronary effusate (isolated mouse heart; 10 μM for 10 min, vs control): not significantly affected or altered; concentration of Na+ in coronary effusate (isolated mouse heart; 10 μM for 10 min, vs control): not significantly affected or altered; heart rate (HR) (isolated mouse heart; 10 μM for 10 min, vs control): not significantly affected or altered; pH-value of coronary effusate (isolated mouse heart; 10 μM for 10 min, vs control): not significantly affected or altered; coronary flow (CF) (isolated mouse heart; 10 μM for 10 min, during and 30 minutes after administration, vs control, p<0.05): significantly increased; myocardial consumption of glucose (isolated mouse heart; [3]): not significantly affected or altered; myocardial consumption of lactate (isolated mouse heart; [3]): not significantly affected or altered; effect of inhibition of ATP-sensitive potassium-channels on the vasodilatory effect (isolated mouse heart; CRC1HCl 10 μM with PNU-37883A 10 μM, data not shown): had no effect; effect of inhibition of nitric oxide synthase on the vasodilatory effect (isolated mouse heart; CRC1HCl 10 μM with nitro-L-arginine 100 μM, data not shown): had no effect |
| COc1ccc2ncn(C(=S)SC)c2c1 [CRC6] | – | – | – | – | – | melting point: 64 to 87 °C |
| S [H2S, hydrogen sulfide, reference compound] | – | 107 | – | – | – | – |
| COc1ccc(CSC(=S)n2ccnc2)cc1 [CRC10HCl] | > 100 | 12.8 | 24 | 100 | > 100 | – |
| S=C(N1CCN(C(=S)n2ccnc2)CC1)n1ccnc1 [CRC66] | – | – | – | – | – | melting point: 225 to 226 °C |
| CN(C)CCOC(=S)OCCN(C)C.Cl.Cl [CRC72HCl] | – | – | – | – | – | vasodilatory activity on smooth muscle preparations [1]: inactive; stability in aqueous solutions [2]: stable in aqueous solutions |

Source: US20130005739A1, “PHARMACEUTICAL PREPARATIONS COMPRISING A COS RELEASING COMPOUND” (LUDWIG BOLTZMANN CLUSTER FUER KARDIOVASKULAERE FORSCHUNG, priority 2009, published 2013)
